Read-outs that look alike come from different tables or passages of the source.
Experiments:
[1] = tested on: kidney cystadenomas in Tsc2+/− A/J strain mice; details: THZ1 10 mg/kg IP twice a day 29 days; rapamycin 3 mg/kg 3 times per week
From the text: FIGS. 12A-12F. […] (FIG. 12A) Experimental plan. Tsc2+/− A/J strain mice develop kidney cystadenomas with 100% penetrance by 4 months of age with progressive tumor development. […] (FIG. 12B) Number of tumors per kidney in each treatment group (n=kidney number). ***p<0.001. (FIG. 12C) Tumor volume per kidney, with each data point corresponding to one kidney. (FIG. 12D) Renal cystadenoma histology in the treated mice. Representative tumor images are shown for each treatment cohort. Cystadenomas and tumors each are shown at 100×. […] (FIG. 12E) Ki-67 staining to assess cell proliferation in kidney sections from the treated mice. All images are at 100× magnification. Percentage of tumor cells with nuclear immunoreactivity of Ki-67 was scored from six random fields per section. ***p<0.001.
FIGS. 13A-13B. […]
Tsc2+/− A/J strain mice develop kidney cystadenomas by 4 months of age, and provide a native in vivo model that is […] human TSC patients, and is driven by spontaneous second hit events that lead to complete loss of Tsc2 expression and mTORC1 activation (Auricchio et al., 2012; Guo and Kwiatkowski, 2013; Woodrum et al., 2010). […] Rapamycin was dramatically effective in reducing tumor volume by about 99%, as assessed semi-quantitatively on H&E-stained sections (FIG. 12C), similar to what we have seen previously (Guo and Kwiatkowski, 2013). […]

[2] = tested on: HCV.29-TSC1− xenograft tumors; assay: HCV29-TSC1- xenograft model (Example 2); assay type: in vivo, mice; details: THZ1 10 mg/kg IP twice a day, rapamycin 3 mg/kg IP 3 days per week, or both
Method: FIGS. 14A-14D. […] Tumor size was measured every 3rd day using a digital caliper. […] This was quantified by counting four to six random fields per section. Scale bar=50 μm. **p<0.01, ***p<0.001. […] This was quantified by counting four to six random fields per section. Scale bar 50 μm. not shown (n=6) ***p<0.001. (FIG. 14D) Diagram showing glutathione synthetic pathway and ROS generation in TSC mutant cells. Top, TSC-deficient cells have hyperactive mTORC1, leading to increased ROS, NRF2 induction, and an increase in transcription of glutathione synthetic genes to yield more glutathione to buffer the increased ROS.
FIGS. 15A-15C. (FIG. 15A) Average body weight of TSC1-deficient HCV.29 xenograft mice in each treatment group. […] (n=4 tumors per group). ***p<0.001.
Tumor volumes were measured by calipers. […] Finally, in a cohort of xenograft mice, the treatments were discontinued and tumor growth was observed without intervention after the one month of treatment.

TSC-null cells [3] = assay: ROS levels in TSC-null cells; assay type: cell-based; details: NAC 2 mM + THZ1 30 nM, 48 hr
From the text: (§1) FIGS. 8A-8G. Reduction of glutathione and increase in ROS in THZ1-treated TSC null cells. […] Arrow indicates glutathione. (n=3 samples) (FIG. 8B) Heat map showing the top 15 metabolites with greatest change in 621.101.TSC2− cells, with comparison to control and similarly-treated 621.101.TSC2-addback cells (n=3 samples). The scale is log 2 fold-change. […] Each data point represents the mean±SEM of three independent experiments (** p<0.01; *** p<0.001). […] Each data point represents the mean±SEM of three independent experiments (* p<0.05; ** p<0.01; *** p<0.001). […] Phase contrast images are at top. Cell death (%) is shown at bottom for these treatments as well as RAP (rapamycin 20 nM) and NAC (2 mM) for HCV.29.TSC1− and 621-101.TSC2− after 48 hours of treatment, measured by Trypan blue staining. Each data point represents the mean±SEM of three independent experiments (* p<0.05; ** p<0.01; *** p<0.001).
As GSH is the major intracellular antioxidant […], reactive oxygen species (ROS) were next measured in these cells.
In addition, to examine whether glutathione depletion was the proximate cause of apoptosis in THZ1-treated TSC-null cells, cells were treated with GSH reduced ethyl ester (GSH-MEE), a membrane-permeable derivative of GSH.

TSC-null cells [4] = assay: Antioxidant rescue of THZ1-induced cell death (Trypan blue); assay type: cell-based; details: THZ1 30 nM, NAC 2 mM or GSH-MEE 2 mM, 48 hr
From the text: as §1
FIGS. 9A-9C. […] (n=3 samples,*** p<0.0005). […] Each data point represents the mean±SEM of three independent experiments (** p<0.01; *** p<0.001). (FIG. 9C) Cell death of MEF.TSC2− after 48 hours of treatment with indicated compounds was measured via Trypan blue staining assay. Each data point represents the mean±SEM of three independent experiments (* p<0.05; *** p<0.001). […]

HCV29 cells [5] = details: 30 nM THZ1, 1 mM GSH
[6] = tested on: 621-101 cells (TSC2 null angiomyolipoma cell line); assay: 96-well plate proliferation assay (PicoGreen dsDNA); assay type: cell-based; details: 96 h; 621-101, 4 days; read-out: IC50, inhibition of proliferation
Method: (§2) FIG. 1. THZ1 selectively targets TSC-deficient cells. […] Cell viability was assessed after 4 days of treatment using Quant-it PicoGreen dsDNA. Data is represented as mean±SD.
(§3) Multiple studies were performed that support these hypotheses. Most studies to date have been performed on two pairs of cell lines: (i) HCV29, a TSC1 null human bladder cancer cell line, and a corresponding TSC1 addback derivative (TSC1-HCV29), and (ii) 621-101, a TSC2 null angiomyolipoma cell line, and the TSC2 addback derivative […].

[7] = tested on: HCV29 cells (TSC1 null bladder cancer cell line); assay: as above; assay type: cell-based; details: Homo sapiens, HCV-29, 96 h; HCV29, 4 days; read-out: IC50, inhibition of proliferation
Method: as §2, §3

HCV29 cells [8] = assay: Cell cycle flow cytometry; assay type: cell-based, human; details: 30 nM, 24 h
TSC1-HCV29 cells [9] = assay: Cell cycle flow cytometry; assay type: cell-based, human; details: 30 nM, 24 h
HCV29 cells [10] = assay: Apoptosis by flow cytometry, propidium iodide and Annexin V; assay type: cell-based, human; details: 30 nM, 72 h
From the text: (§4) FIGS. 2A-2B. […] Apoptosis was monitored by flow cytometry using FITC-Annexin V. Each data point represents the mean±SEM of three independent experiments. *** p<0.001 (FIG. 2B) Immunoblot analyses of caspase-3 and actin.

TSC1-HCV29 cells [11] = assay: as above; assay type: cell-based, human; details: 30 nM, 72 h
From the text: as §4

HCV29 cells [12] = assay: ROS levels; assay type: cell-based, human; details: THZ1 30 nM, rapamycin 20 nM or both
HCV29 cells [13] = assay: Steady state metabolite analysis; assay type: cell-based, human; details: 30 nM, 48 h
HCV29 cells [14] = assay: RNA-Seq gene expression, HCV29 vs TSC1-HCV29; assay type: cell-based, human; details: 30 nM THZ1-treated HCV29 vs THZ1-treated TSC1-HCV29, 6 hours
From the text: However, the inventors focused on expression of all genes involved in the synthesis of reduced glutathione.

HCV29 xenograft tumors = HCV29 xenograft tumors in Foxn1nu mice (Example 1); assay type: in vivo; details: 10 mg/kg IP twice daily, 30 days
From the text: FIG. 3. […] Treatment groups are indicated. […] Caliper measurements were used to calculate tumor volume.
HCV29 xenograft tumors were induced in immune-deficient Foxn1^nu mice by injection of 10^7 cells into each flank. […] Tumor size was monitored using calipers.

TSC-null cell lines = assay: 96 well plate growth assay, TSC-null cell lines; assay type: cell-based; details: 120 h, 6 cell line pairs, 5 days
Method: (§5) FIGS. 4A-4F. […] Cell number was calculated by measurement of dsDNA content using PicoGreen after 5 days in 96-well plate assays. Each data point represents the mean of 4 measurements. SEM are indicated. […] Apoptotic cell death was quantified by propidium iodide (PI) staining and flow cytometry, and is shown as the percentage of cells that were PI positive. Each data point represents the mean±SEM of three independent experiments. * p<0.05; ** p<0.01; *** p<0.001. […] Beta-actin serves as a loading control.
(§6) FIGS. 5A-5D. […] Beta-actin serves as a loading control. […] Apoptotic cells were quantified by propidium iodide (PI) staining and flow cytometry. Each data point represents the mean±SEM of three independent experiments. * p<0.05; ** p<0.01; *** p<0.001. […] Beta-actin serves as a loading control.

TSC-addback cell lines = assay: 96 well plate growth assay, TSC-addback cell lines; assay type: cell-based; details: 120 h, 6 cell line pairs, 5 days
Method: as §5, §6

TSC null cells = assay: NRF2, GCLC, GCLM, GSR protein expression; assay type: cell-based; details: 24 hours after THZ1 treatment
[15] = tested on: tumors in a TSC mouse model; assay: SY-1365 in a TSC mouse model; assay type: in vivo; details: tail vein injection 2×/week at 40 mg/kg for 4 weeks
Method: FIG. 16. Effect of SY-1365 on tumor volume in a TSC mouse model. SY-1365 was administered by tail vein injection 2×/week at 40 mg/kg for 4 weeks. Mice were then sacrificed and tumor assessment performed based on histology.

CDK7 [16] = molecular target: T1, CDK7 (Homo sapiens, UniProt P50613); details: cited from earlier work
T1 sequence (P50613 whole entry): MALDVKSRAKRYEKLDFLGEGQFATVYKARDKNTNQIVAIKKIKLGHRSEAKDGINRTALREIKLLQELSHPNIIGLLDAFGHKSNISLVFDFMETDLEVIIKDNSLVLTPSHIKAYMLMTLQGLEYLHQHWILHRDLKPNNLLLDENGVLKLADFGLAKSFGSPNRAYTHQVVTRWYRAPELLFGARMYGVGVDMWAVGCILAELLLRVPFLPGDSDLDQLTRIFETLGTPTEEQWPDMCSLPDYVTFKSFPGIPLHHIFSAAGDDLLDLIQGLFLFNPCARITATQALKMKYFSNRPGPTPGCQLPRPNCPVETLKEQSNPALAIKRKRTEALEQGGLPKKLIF
T1 sequence (P51946 whole entry partner): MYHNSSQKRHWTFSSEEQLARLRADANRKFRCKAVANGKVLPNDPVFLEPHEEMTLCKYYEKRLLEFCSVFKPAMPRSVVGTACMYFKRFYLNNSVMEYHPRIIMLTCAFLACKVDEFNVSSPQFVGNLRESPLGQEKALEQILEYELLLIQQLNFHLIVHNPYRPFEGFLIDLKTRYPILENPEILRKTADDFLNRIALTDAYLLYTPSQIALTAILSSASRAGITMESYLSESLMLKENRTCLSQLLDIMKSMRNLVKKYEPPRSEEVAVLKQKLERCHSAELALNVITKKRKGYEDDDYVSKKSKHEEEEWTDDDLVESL
T1 sequence (P51948 whole entry partner): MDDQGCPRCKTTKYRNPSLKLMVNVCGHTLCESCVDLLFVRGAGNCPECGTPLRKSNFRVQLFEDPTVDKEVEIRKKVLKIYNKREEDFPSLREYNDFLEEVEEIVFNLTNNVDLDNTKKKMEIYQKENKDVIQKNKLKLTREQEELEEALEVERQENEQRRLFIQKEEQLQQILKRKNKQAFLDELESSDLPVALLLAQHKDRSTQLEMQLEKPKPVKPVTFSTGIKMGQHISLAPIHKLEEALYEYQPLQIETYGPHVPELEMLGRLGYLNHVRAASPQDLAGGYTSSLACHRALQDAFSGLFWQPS

CDK7 [17] = molecular target: T1, CDK7; details: read-out: cellular IC50; cited from earlier work
[18] = compared to THZ1; cited from earlier work

Question: With `CO[C@H]1C[C@@H]2CC[C@@H](C)[C@@](O)(O2)C(=O)C(=O)N2CCCC[C@H]2C(=O)O[C@H]([C@H](C)C[C@@H]2CC[C@@H](O)[C@H](OC)C2)CC(=O)[C@H](C)/C=C(\C)[C@@H](O)[C@@H](OC)C(=O)[C@H](C)C[C@H](C)/C=C/C=C/C=C/1C` [rapamycin] as the compound, how does the “reduction of tumor volume (semi-quantitative, H&E sections)” value [1] read?
Answer: about 99%

Question: What about the “body weight and toxicity” value [2] of the same compound?
Answer: No effect on body weight or other evidence of toxicity

Question: Which “ROS levels in THZ1 treated TSC-null cells with antioxidant” value (TSC-null cells [3]) does the source give for `CC(=O)N[C@@H](CS)C(=O)O` [NAC, N-acetyl-cysteine] here?
Answer: restored ROS levels to near baseline

Question: What about the “cell death / viability of THZ1-treated TSC-null cells with co-treatment” value (TSC-null cells [4]) of the same compound?
Answer: significantly reduced the cell death

Question: With `N[C@@H](CCC(=O)N[C@@H](CS)C(=O)NCC(=O)O)C(=O)O` [GSH, glutathione] as the compound, how does the “THZ1-induced HCV29 cell death with GSH co-treatment” value (HCV29 cells [5]) read?
Answer: markedly reduced

Question: Which results are given for `CN(C)C/C=C/C(=O)Nc1ccc(C(=O)Nc2cccc(Nc3ncc(Cl)c(-c4c[nH]c5ccccc45)n3)c2)cc1` [THZ1]?
Answer: IC50 [6]: ~30 nM; IC50 [7]: ~30 nM; cells arrested in G2/M-phase (HCV29 cells [8]): 21%; cells arrested in G2/M-phase (TSC1-HCV29 cells [9]): 5.5%; Annexin V+ cells (HCV29 cells [10]): 37%; Annexin V+ cells (TSC1-HCV29 cells [11]): 2%; ROS levels increase (HCV29 cells [12]): 2.5 fold; Glutathione disulfide (GSS) levels reduced (HCV29 cells [13]): 65%; S-adenosyl-L-homocysteine reduction in levels (HCV29 cells [13]): 87%; glutathione (GSH) reduction in levels (HCV29 cells [13]): 78%; GCLC mRNA levels reduction (HCV29 cells [14]): 82%; GCLM mRNA levels reduction (HCV29 cells [14]): 68%; GSR mRNA levels reduction (HCV29 cells [14]): 86%; body weight and apparent toxicities (HCV29 xenograft tumors): did not affect body weight or cause other apparent toxicities; IC50 (TSC-null cell lines; read-out: IC50 range, TSC-null cell lines): 16 to 39 nM; IC50 (TSC-null cell lines; read-out: median IC50, TSC-null cell lines): 26.5 nM; IC50 (TSC-addback cell lines; read-out: IC50 range, addback lines): 190 to 660 nM; IC50 (TSC-addback cell lines; read-out: median IC50, addback lines): 475 nM; reduction in expression of each protein (NRF2, GCLC, GCLM, GSR) (TSC null cells): > 90%; reduction of tumor volume (semi-quantitative, H&E sections) [1]: about 99%; body weight and toxicity [2]: No effect on body weight or other evidence of toxicity

Question: For `CCOC(=O)CNC(=O)[C@H](CS)NC(=O)CC[C@H](N)C(=O)O` [GSH-MEE, GSH reduced ethyl ester], which “cell death / viability of THZ1-treated TSC-null cells with co-treatment” value (TSC-null cells [4]) is on record?
Answer: rescued the viability

Question: For `CN(C)C/C=C/C(=O)Nc1ccc(C(=O)N[C@@]2(C)CCC[C@@H](Nc3ncc(Cl)c(-c4c[nH]c5ccccc45)n3)C2)nc1` [SY-1365], which “reduction in tumor volume (semi-quantitative, histology)” value [15] is on record?
Answer: 99%

Question: And the “selectivity for CDK7 over other CDKs (e.g., CDK9)” value (CDK7 [16])?
Answer: high selectivity for CDK7 over other CDKs

Question: What about the IC50 (CDK7 [16]; read-out: enzymatic IC50) of the same compound?
Answer: ~22 nM

Question: What about the IC50 (CDK7 [17]) of the same compound?
Answer: ~20 nM

Question: And the pharmacokinetic properties [18]?
Answer: improved pharmacokinetic properties compared to THZ1

Reference: patent US20200197392A1, “COMPOSITIONS AND METHODS FOR TREATING TUBEROUS SCLEROSIS COMPLEX” (THE BRIGHAM & WOMEN'S HOSPITAL, INC., priority 2017, published 2020)
